Measured values taken from patent US12202827B2, “Aldosterone synthase inhibitor” (DAMIAN PHARMA AG, priority 2016, dated 2025).
Read-outs that look alike come from different tables or passages of the source. One block for each compound: values may come before it.

Experiments:
[1] = Dynamic Vapour Sorption (DVS); format: physicochemical
Method: The Dynamic Vapour Sorption (DVS) studies were performed using a Surface Measurement Systems Ltd. DVS-1 No Video. The sample was loaded into a balance pan, typically 20-30 mg, and equilibrated at 0% RH. After the material was dried, the RH was increased with 10% per step for 1 hour per increment, ending at 95% RH. After completion of the sorption cycle, the sample was dried using the same method. The software used for data collection was DVSWin v3.01 No Video. Data analysis was performed using DVS Standard Analysis Suite v6.3.0 (Standard).

[2] = up to 225° C., TGA/DSC
Method: The thermogravimetric analysis and differential scanning calorimetry (TGA/DSC) studies were performed using a Mettler Toledo TGA/DSC1 STARe System with a 34-position auto sampler. The samples were made using Al crucibles (40 μL; pierced). Typically 5-10 mg of sample was loaded into a pre-weighed Al crucible and was kept at 30° C. for 5 minutes, after which it was heated at 10° C./min from 30° C. to 350° C. A nitrogen purge of 40 ml/min was maintained over the sample. The software used for data collection and evaluation was STARe Software v12.10 build 5937. No corrections were applied to the thermogram.

[3] = Solid state characterization of salts obtained as solids; format: physicochemical
[4] = Method: The X-ray powder diffraction studies were performed using a Bruker AXS D2 PHASER in Bragg-Brentano configuration. Using a Cu anode at 30 kV, 10 mA; sample stage standard rotating; monochromatisation by a Kβ-filter (0.5% Ni). Slits: fixed divergence slits 1.0 mm (=0.61°), primary axial Soller slit 2.5°, secondary axial Soller slit 2.5°. Detector: Linear detector LYNXEYE with receiving slit 5° detector opening. […] Measurement conditions: scan range 5 to 45° 2theta, sample rotation 5 rpm, 0.5 s/step, 0.010°/step, 3.0 mm detector slit; and all measuring conditions were logged in the instrument control file. As system suitability, corundum sample A26-826-S(NIST standard) was measured daily.
Remark: listed apart in the source
[5] = not given; remark: listed apart in the source
[6] = Shake-flask solubility study; details: 20° C.
[7] = Hygroscopicity, open flasks in unconditioned ambient air for 24 hours; details: open flask; for Hygroscopicity (assessment in words): ambient air; for Absolute weight / Weight increase: room temperature, unconditioned ambient air
Method: 100 mg samples of the two crystalline salts were stored in open flasks for 24 hours side by side at room temperature in unconditioned ambient air and weight measurements occurred at time 0 and after 24 hours (Table 6).

[8] = literature; cited from earlier work
[9] = Acetic acid, sample DF1181-5-S11
[10] = Acetonitrile, sample DF1181-5-S7
[11] = Dichloromethane, sample DF1181-5-S2
[12] = Ethyl acetate, sample DF1181-5-S5
[13] = Methyl tert-butyl ether, sample DF1181-5-S3

Reversibility of water uptake ([1]; DVS sorption/desorption cycles): reversible
Crystalline form upon DVS treatment (XRPD) ([1]; before and after DVS cycles): does not change
Mass loss upon heating [2]: 1.4%
Crystallinity [3]: good
Hygroscopicity (DVS) [3]: low
Polymorph tendency (XRPD) [3]: Not observed
Solid phase transition (XRPD) [3]: Not observed
Solvation [3]: anhydrous
Water solubility [3]: good
XRPD after solubility determination [4, 9]: Amorphous
XRPD after solubility determination ([4]; Acetone, sample DF1181-5-S4): Form I-Conform starting material
XRPD after solubility determination [4, 10]: Form I-Conform starting material
XRPD after solubility determination [4, 11]: Form I-Conform starting material
XRPD after solubility determination ([4]; Ethanol, sample DF1181-5-S6): Form I-Conform starting material
XRPD after solubility determination [4, 12]: Form I-Conform starting material
XRPD after solubility determination ([4]; Methanol, sample DF1181-5-S1): Form I-Conform starting material
XRPD after solubility determination [4, 13]: Form I-Conform starting material
XRPD after solubility determination ([4]; Toluene, sample DF1181-5-S10): Form I-Conform starting material
XRPD after solubility determination ([4]; Water, sample DF1181-5-S9): Form I-Conform starting material
XRPD after solubility determination ([4]; n-Heptane, sample DF1181-5-S8): Form I-Conform starting material
XRPD (polymorphic form) (wells 1-6, solvent Formic acid, co-solvent Water): Form I
XRPD (polymorphic form) (wells 7-12, solvent 2-Butanone, co-solvent n-Heptane): Form I
XRPD (polymorphic form) (wells 13-18, solvent Acetic acid, co-solvent Water): Form I
XRPD (polymorphic form) (wells 19-24, solvent Cyclohexanone, co-solvent n-Heptane): Form I
XRPD (polymorphic form) (wells 25-30, solvent Methanol, co-solvent Water): Form I
XRPD (polymorphic form) (wells 31-36, solvent Ethylacetate, co-solvent n-Heptane): Form I
XRPD (polymorphic form) (wells 37-42, solvent Ethanol, co-solvent Water): Form I
XRPD (polymorphic form) (wells 43-48, solvent Isopropyl acetate, co-solvent n-Heptane): Form I
XRPD (polymorphic form) (wells 49-54, solvent 2-Propanol, co-solvent Water): Form I
XRPD (polymorphic form) (wells 55-60, solvent Cyclopentyl methyl ether, co-solvent n-Heptane): Form I
XRPD (polymorphic form) (wells 61-66, solvent Acetone, co-solvent Water): Form I
XRPD (polymorphic form) (wells 67-72, solvent Toluene, co-solvent n-Heptane): Form I
XRPD (polymorphic form) (wells 79-84, solvent Cyclohexane, co-solvent n-Heptane): Form I
XRPD (polymorphic form) (wells 85-90, solvent Tetrahydrofuran, co-solvent Water): Form I
XRPD (polymorphic form) (wells 91-96, solvent Chlorobenzene, co-solvent n-Heptane): Form I
Appearance ([5]; 25° C./60% RH, 1 month): White
Chiral Purity ([5]; 25° C./60% RH, 1 month): >99.5
Polymorph by XRPD ([5]; 25° C./60% RH, 1 month): Conform
Purity by HPLC ([5]; 25° C./60% RH, 1 month): 99.77
Water content ([5]; 25° C./60% RH, 1 month): 0.2
Appearance ([5]; 25° C./60% RH, 3 months): White
Chiral Purity ([5]; 25° C./60% RH, 3 months): >99.5
Polymorph by XRPD ([5]; 25° C./60% RH, 3 months): Conform
Purity by HPLC ([5]; 25° C./60% RH, 3 months): 99.81
Water content ([5]; 25° C./60% RH, 3 months): 0.2
Appearance ([5]; 25° C./60% RH, 6 months): White
Chiral Purity ([5]; 25° C./60% RH, 6 months): >99.5
Polymorph by XRPD ([5]; 25° C./60% RH, 6 months): Conform
Purity by HPLC ([5]; 25° C./60% RH, 6 months): 99.82
Water content ([5]; 25° C./60% RH, 6 months): 0.2
Appearance ([5]; 25° C./60% RH, 9 months): White
Chiral Purity ([5]; 25° C./60% RH, 9 months): >99.5
Polymorph by XRPD ([5]; 25° C./60% RH, 9 months): Conform
Purity by HPLC ([5]; 25° C./60% RH, 9 months): 99.84
Water content ([5]; 25° C./60% RH, 9 months): 0.2
Appearance ([5]; 25° C./60% RH, 12 months): White
Chiral Purity ([5]; 25° C./60% RH, 12 months): >99.5
Polymorph by XRPD ([5]; 25° C./60% RH, 12 months): Conform
Purity by HPLC ([5]; 25° C./60% RH, 12 months): 99.81
Water content ([5]; 25° C./60% RH, 12 months): 0.3
Appearance ([5]; 25° C./60% RH, Initial): White
Chiral Purity ([5]; 25° C./60% RH, Initial): >99.5
Polymorph by XRPD ([5]; 25° C./60% RH, Initial): Conform
Purity by HPLC ([5]; 25° C./60% RH, Initial): 99.87
Water content ([5]; 25° C./60% RH, Initial): 0.3
Appearance ([5]; 30° C./65%RH, 1 month): White
Chiral Purity ([5]; 30° C./65%RH, 1 month): >99.5
Polymorph by XRPD ([5]; 30° C./65%RH, 1 month): Conform
Purity by HPLC ([5]; 30° C./65%RH, 1 month): 99.76
Water content ([5]; 30° C./65%RH, 1 month): 0.2
Appearance ([5]; 30° C./65%RH, 3 months): White
Chiral Purity ([5]; 30° C./65%RH, 3 months): >99.5
Polymorph by XRPD ([5]; 30° C./65%RH, 3 months): Conform
Purity by HPLC ([5]; 30° C./65%RH, 3 months): 99.81
Water content ([5]; 30° C./65%RH, 3 months): 0.3
Appearance ([5]; 30° C./65%RH, 6 months): White
Chiral Purity ([5]; 30° C./65%RH, 6 months): >99.5
Polymorph by XRPD ([5]; 30° C./65%RH, 6 months): Conform
Purity by HPLC ([5]; 30° C./65%RH, 6 months): 99.84
Water content ([5]; 30° C./65%RH, 6 months): 0.2
Appearance ([5]; 30° C./65%RH, 9 months): White
Chiral Purity ([5]; 30° C./65%RH, 9 months): >99.5
Polymorph by XRPD ([5]; 30° C./65%RH, 9 months): Conform
Purity by HPLC ([5]; 30° C./65%RH, 9 months): 99.86
Water content ([5]; 30° C./65%RH, 9 months): 0.2
Appearance ([5]; 30° C./65%RH, 12 months): White
Chiral Purity ([5]; 30° C./65%RH, 12 months): >99.5
Polymorph by XRPD ([5]; 30° C./65%RH, 12 months): Conform
Purity by HPLC ([5]; 30° C./65%RH, 12 months): 99.85
Water content ([5]; 30° C./65%RH, 12 months): 0.3
Appearance ([5]; 30° C./65%RH, Initial): White
Chiral Purity ([5]; 30° C./65%RH, Initial): >99.5
Polymorph by XRPD ([5]; 30° C./65%RH, Initial): Conform
Purity by HPLC ([5]; 30° C./65%RH, Initial): 99.87
Water content ([5]; 30° C./65%RH, Initial): 0.3
Appearance ([5]; 40° C./75% RH, 1 month): White
Chiral Purity ([5]; 40° C./75% RH, 1 month): >99.5
Polymorph by XRPD ([5]; 40° C./75% RH, 1 month): Conform
Purity by HPLC ([5]; 40° C./75% RH, 1 month): 99.80
Water content ([5]; 40° C./75% RH, 1 month): 0.3
Appearance ([5]; 40° C./75% RH, 3 months): White
Chiral Purity ([5]; 40° C./75% RH, 3 months): >99.5
Polymorph by XRPD ([5]; 40° C./75% RH, 3 months): Conform
Purity by HPLC ([5]; 40° C./75% RH, 3 months): 99.79
Water content ([5]; 40° C./75% RH, 3 months): 0.5
Appearance ([5]; 40° C./75% RH, 6 months): White
Chiral Purity ([5]; 40° C./75% RH, 6 months): >99.5
Polymorph by XRPD ([5]; 40° C./75% RH, 6 months): Conform
Purity by HPLC ([5]; 40° C./75% RH, 6 months): 99.88
Water content ([5]; 40° C./75% RH, 6 months): 0.3
Appearance ([5]; 40° C./75% RH, Initial): White
Chiral Purity ([5]; 40° C./75% RH, Initial): >99.5
Polymorph by XRPD ([5]; 40° C./75% RH, Initial): Conform
Purity by HPLC ([5]; 40° C./75% RH, Initial): 99.87
Water content ([5]; 40° C./75% RH, Initial): 0.3
Long-term stability (purity, water content, chiral purity), in words ([5]; all assessed stability conditions and time periods): very stable
Solubility [6, 9]: 118 to 1180 mg/mL
Solubility ([6]; Acetone, sample DF1181-5-S4): <0.09 mg/mL
Solubility [6, 10]: <0.11 mg/mL
Solubility [6, 11]: <0.10 mg/mL
Solubility ([6]; Ethanol, sample DF1181-5-S6): 0.1 to 1.0 mg/mL
Solubility [6, 12]: <0.09 mg/mL
Solubility ([6]; Methanol, sample DF1181-5-S1): 112 to 1120 mg/mL
Solubility [6, 13]: <0.11 mg/mL
Solubility ([6]; Toluene, sample DF1181-5-S10): <0.10 mg/mL
Solubility ([6]; Water, sample DF1181-5-S9): >1000 mg/mL
Solubility ([6]; n-Heptane, sample DF1181-5-S8): <0.11 mg/mL
Hygroscopicity (assessment in words) [7]: non-hygroscopic
Absolute weight [7]: 103.9 mg
Weight increase ([7]; listed as Phosphate Salt): 0.57%
Structure (SMILES): N#Cc1ccc([C@H]2CCCc3cncn32)cc1.O=P(O)(O)O

Hygroscopicity (assessment in words) [7]: significant hygroscopicity
Absolute weight [7]: 113.2 mg
Weight increase [7]: 13.1%
Weight increase ([7]; listed as Chloride Salt): 13.1%
Structure (SMILES): Cl.N#Cc1ccc([C@H]2CCCc3cncn32)cc1
Hygroscopicity (in words) [8]: highly hygroscopic
